The target of assay [1] is T1, human A1 AR (Homo sapiens, UniProt P30542).
T1 construct: expressed in transfected cells; membranes
T1 sequence (P30542 1-326): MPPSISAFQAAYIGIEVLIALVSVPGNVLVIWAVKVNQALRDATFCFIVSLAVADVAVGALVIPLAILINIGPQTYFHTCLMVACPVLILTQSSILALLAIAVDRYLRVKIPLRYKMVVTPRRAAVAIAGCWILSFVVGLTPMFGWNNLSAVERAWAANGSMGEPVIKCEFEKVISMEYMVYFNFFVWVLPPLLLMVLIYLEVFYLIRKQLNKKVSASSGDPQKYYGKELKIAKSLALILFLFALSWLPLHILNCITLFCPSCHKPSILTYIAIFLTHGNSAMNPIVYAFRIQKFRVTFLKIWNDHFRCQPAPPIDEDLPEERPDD
The assay is described as follows: Radioligand competition binding with 125I-ABA, membranes of CHO K1 cells stably expressing the receptor. The note with it: Ki derived from IC50, class symbols. (In general: Displacement assays read how much labelled ligand stays bound in the presence of the test substance.)

Assay [2] addresses T2, human A3 AR (Homo sapiens, UniProt P0DMS8).
T2 construct: expressed in transfected cells; membranes
T2 sequence (P0DMS8 1-318): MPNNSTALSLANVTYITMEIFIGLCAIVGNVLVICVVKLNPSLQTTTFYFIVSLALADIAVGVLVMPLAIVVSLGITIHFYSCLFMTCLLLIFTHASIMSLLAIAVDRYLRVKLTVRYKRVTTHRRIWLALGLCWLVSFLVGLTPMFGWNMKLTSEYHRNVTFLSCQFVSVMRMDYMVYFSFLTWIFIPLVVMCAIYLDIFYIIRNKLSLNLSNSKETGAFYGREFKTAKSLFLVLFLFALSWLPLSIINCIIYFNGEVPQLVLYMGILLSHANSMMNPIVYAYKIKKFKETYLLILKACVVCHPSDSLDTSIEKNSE
The assay can be described thus: Radioligand competition binding with 125I-ABA, membranes of HEK 293 cells stably expressing the receptor. As to conditions: Ki derived from IC50, class symbols. As to the method: (§1) Cell culture and membrane preparation. Sf9 cells were cultured in Grace's medium supplemented with 10% fetal bovine serum, 2.5 μg/ml amphotericin B and 50 μg/ml gentamycin in an atmosphere of 50% N2/50% O2. Viral infection was performed at a density of 2.5×10^6 cells/mL with a multiplicity of infection of two for each virus used. Infected cells were harvested 3 days post-infection and washed twice in insect PBS (PBS pH 6.3). Cells were then resuspended in lysis buffer (20 mM HEPES pH 7.5, 150 mM NaCl, 3 mM MgCl2, 1 mM α-mercaptoethanol (BME), 5 μg/mL leupeptin, 5 μg/mL pepstatin A, 1 μg/mL aprotinin, and 0.1 mM PMSF) and snap frozen for storage at −80° C. Cells were thawed on ice, brought to 30 mL total volume in lysis buffer, and burst by N2 cavitation (600 psi for 20 minutes). A low-speed centrifugation was performed to remove any unlysed cells (1000×g for 10 minutes), followed by a high-speed centrifugation (17,000×g for 30 minutes). The pellet from the final centrifugation was homogenized in buffer containing 20 mM HEPES pH 8, 1100 mM NaCl, 1% glycerol, 2 μg/mL leupeptin, 2 μg/mL pepstatin A, 2 μg/mL Aprotinin, 0.1 mM PMSF, and 10 μM GDP using a small glass homogenizer followed by passage through a 26 gauge needle. Membranes were aliquoted, snap frozen in liquid N2, and stored at −80° C. Membranes from cells stably expressing the human A1 AR (CHO K1 cells) or A3 AR (HEK 293 cells) were prepared as described (Robeva et al., 1996).
Radioligand Binding Assays. Radioligand binding to recombinant human A2A receptors in Sf9 cell membranes was performed using either the radiolabeled agonist, ^125I-APE (Luthin et al., 1995) or the radiolabeled antagonist, ^125I-ZM241385 (^125I-ZM). To detect the high affinity, GTPγS-sensitive state of A1 and A3 AR, we used the agonist, ^125I-ABA (Linden et al., 1985; Linden et al., 1993). Binding experiments were performed in triplicate with 5 μg (A2A) or 25 μg (A1 and A3) membrane protein in a total volume of 00.1 mL HE buffer (20 mM HEPES and 1 mM EDTA) with 1 U/mL adenosine deaminase and 5 mM MgCl2 with or without 50 μM GTPγS. Membranes were incubated with radioligands at room temperature for three hours (for agonists) or two hours (for antagonists) in Millipore Multiscreen® 96-well GF/C filter plates and assays were terminated by rapid filtration on a cell harvester (Brandel, Gaithersburg, Md.) followed by 4×150 μl washes over 30 seconds with ice cold 10 mM Tris-HCl, pH 7.4, 10 mM MgCl2. Nonspecific binding was measured in the presence of 50 μM NECA. Competition binding assays were performed as described (Robeva et al., 1996) using 0.5-1 nM ^125I-APE, ^125I-ZM241385, or ^125I-ABA. […] The Ki values for competing compound binding to a single site were derived from IC50 values with correction for radioligand and competing compound depletion as described previously (Linden, 1982).

Assay [3] addresses T3, recombinant human A2A receptors (Homo sapiens, UniProt P29274).
T3 construct: expressed in transfected cells; host or cells: Sf9 insect cells infected with virus; membranes
The assay can be described thus: Radioligand competition binding with 125I-APE or 125I-ZM241385, Sf9 cell membranes. The note with it: 125I-APE or 125I-ZM241385, Sf9 membranes; class symbols. As to the method:
as §1, with “C.” for “C. Membranes from cells stably expressing the human A1 AR (CHO K1 cells) or A3 AR (HEK 293 cells) were prepared as described (Robeva et al., 1996).”
Radioligand Binding Assays. […] Binding experiments were performed in triplicate with 5 μg (A2A) or 25 μg (A1 and A3) membrane protein in a total volume of 00.1 mL HE buffer (20 mM HEPES and 1 mM EDTA) with 1 U/mL adenosine deaminase and 5 mM MgCl2 with or without 50 μM GTPγS. Membranes were incubated with radioligands at room temperature for three hours (for agonists) or two hours (for antagonists) in Millipore Multiscreen® 96-well GF/C filter plates and assays were terminated by rapid filtration on a cell harvester (Brandel, Gaithersburg, Md.) followed by 4×150 μl washes over 30 seconds with ice cold 10 mM Tris-HCl, pH 7.4, 10 mM MgCl2. Nonspecific binding was measured in the presence of 50 μM NECA.

The subject of assay [4] is Purified human neutrophils. The assay is described as follows: Luminol enhanced chemiluminescence (neutrophil oxidative activity), fMLP stimulated. As to conditions: Homo sapiens, Neutrophil; read-out: Functional. It is filed as cell-based. An excerpt:
Chemiluminescence Methods: Luminol enhanced chemiluminescence, a measure of neutrophil oxidative activity, is dependent upon both superoxide production and mobilization of the granule enzyme myeloperoxidase. The light is emitted from unstable high-energy oxygen species such as hypochlorous acid and singlet oxygen generated by activated neutrophils.
Purified human neutrophils (2×10^6/ml) suspended in Hanks balanced salt solution containing 0.1% human serum albumin (HA), adenosine deaminase (1 U/mL) and rolipram (100 nM) were incubated (37 C) in a water bath for 15 min with or without rhTNF (10 U/ml). Following incubation 100 µL aliquots of the PMN were transferred to wells (White walled clear bottom 96 well tissue culture plates Costar #3670; 2 wells/condition) containing […] and luminol (final concentration 100M) with or without adenosine agonist (final agonist concentrations 0.01-1000 nM). The plate was incubated 5 min (37 C) and then fMLP (50 l in HA; final concentration […]) was added to all wells.
Peak chemiluminescence was determined with a Victor 1420 Multilabel Counter in the chemiluminescence mode using the Wallac Workstation software. Data are presented as peak chemiluminescence as percent of activity in the absence of an adenosine agonist. The EC50 was determined using PRISM software. All compounds were tested with PMNs from three separate donors.

pEC50, pKi: −log10 of the molar value.

A word on the pKi: it is the Ki on a negative log10 scale, so that one unit is a factor of ten.

T3 sequence (P29274 whole entry): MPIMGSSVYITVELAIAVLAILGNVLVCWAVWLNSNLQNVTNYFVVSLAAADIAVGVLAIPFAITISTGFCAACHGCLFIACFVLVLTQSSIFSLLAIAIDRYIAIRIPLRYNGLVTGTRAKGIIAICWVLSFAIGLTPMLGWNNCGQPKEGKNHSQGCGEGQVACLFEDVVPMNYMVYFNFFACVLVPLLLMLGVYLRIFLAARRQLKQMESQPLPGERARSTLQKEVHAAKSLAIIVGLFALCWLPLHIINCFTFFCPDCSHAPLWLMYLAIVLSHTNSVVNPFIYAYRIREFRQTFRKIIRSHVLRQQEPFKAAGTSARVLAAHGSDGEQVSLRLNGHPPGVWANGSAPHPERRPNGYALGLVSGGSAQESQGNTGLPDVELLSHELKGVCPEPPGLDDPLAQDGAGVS

Take `Nc1nc(C#CCC2CCN(C(=O)Oc3ccc([N+](=O)[O-])cc3)CC2)nc2c1ncn2[C@@H]1O[C@H](C(=O)NC2CC2)C(O)[C@@H]1O` (stereo partly shown) [Compound 10, N-Cyclopropyl 2-{3-[1-(4-nitrophenyloxycarbonyl)-4-piperidinyl]-1-propyn-1-yl}adenosine-5′-uronamide]: the pKi in assay [1] is over 7.00; in assay [2], over 7.00; in assay [3], over 9.00. Further, the pEC50 in assay [4] is over 9.00.
For the molecule `Nc1nc(C#CCC2CCN(C(=O)Oc3ccc(F)cc3)CC2)nc2c1ncn2[C@@H]1O[C@H](CO)[C@@H](O)[C@H]1O` [Compound 11, 2-{3-[1-((4-Fluorophenoxy)carbonyl)piperidin-4-yl]propyn-1-yl}adenosine], the figures for the pKi in assay [1], in assay [2] and in assay [3] were over 7.00, over 7.00 and over 9.00, respectively. In addition, the pEC50 in assay [4] is over 8.00.
Consider `Nc1nc(C#CCC2CCN(C(=O)Oc3ccc([N+](=O)[O-])cc3)CC2)nc2c1ncn2[C@@H]1O[C@H](CO)[C@@H](O)[C@H]1O` [Compound 12, 2-{3-[1-((4-Nitrophenoxy)carbonyl)piperidin-4-yl]propyn-1-yl}adenosine], for which the figures for the pKi in assay [1], in assay [2] and in assay [3] were over 7.00, over 7.00 and over 9.00, respectively. In addition, the pEC50 in assay [4] is over 9.00.
`COC(=O)c1ccc(OC(=O)N2CCC(CC#Cc3nc(N)c4ncn([C@@H]5O[C@H](CO)[C@@H](O)[C@H]5O)c4n3)CC2)cc1` [Compound 13, 2-{3-[1-((4-Methoxycarbonylphenoxy)carbonyl)piperidin-4-yl]propyn-1-yl}adenosine]: the pKi in assay [1] is over 7.00; in assay [2], over 7.00; in assay [3] it was over 9.00. Besides, in assay [4], the pEC50 was over 8.00.
As for `Nc1nc(C#CCC2CCN(C(=O)Oc3ccc(C(=O)O)cc3)CC2)nc2c1ncn2[C@@H]1O[C@H](C(=O)NC2CC2)C(O)[C@@H]1O` (stereo partly shown) [Compound 14, N-Cyclopropyl 2-{3-[1-(4-carboxyphenoxycarbonyl)-4-piperidinyl]-1-propyn-1-yl}adenosine-5′-uronamide], the pKi in assay [1] was under 7.00; in assay [2], under 7.00; in assay [3], over 8.00. Further, in assay [4], the pEC50 is over 7.00.
As for `CCNC(=O)[C@H]1O[C@@H](n2cnc3c(N)nc(C#CCC4CCN(C(=O)Oc5ccc(OC)cc5)CC4)nc32)[C@@H](O)C1O` (stereo partly shown) [Compound 15, N-Ethyl 2-{3-[1-(4-methoxyphenoxycarbonyl)-4-piperidinyl]-1-propyn-1-yl}adenosine-5′-uronamide], the pKi was over 7.00 in assay [1], over 8.00 in assay [2] and over 9.00 in assay [3]. Further, the pEC50 in assay [4] was over 9.00.
Regarding `CCNC(=O)[C@H]1O[C@@H](n2cnc3c(N)nc(C#CCC4CCN(C(=O)Oc5ccc(C)cc5)CC4)nc32)[C@@H](O)C1O` (stereo partly shown) [Compound 16, N-Ethyl 2-{3-[1-(4-methylphenoxycarbonyl)-4-piperidinyl]-1-propyn-1-yl}adenosine-5′-uronamide], the pKi is over 7.00 in assay [1], over 8.00 in assay [2] and over 9.00 in assay [3]. Moreover, the pEC50 in assay [4] is over 9.00.
In the case of `Nc1nc(C#CCC2CCN(C(=O)Oc3ccc(Cl)cc3)CC2)nc2c1ncn2[C@@H]1O[C@H](C(=O)NC2CC2)C(O)[C@@H]1O` (stereo partly shown) [Compound 17, N-Cyclopropyl 2-{3-[1-(4-chlorophenoxycarbonyl)-4-piperidinyl]-1-propyn-1-yl}adenosine-5′-uronamide], the figures for the pKi in assay [1], in assay [2] and in assay [3] were over 7.00, over 7.00 and over 9.00, respectively. Moreover, the pEC50 in assay [4] was over 9.00.
Consider `Nc1nc(C#CCC2CCN(C(=O)OCc3ccc([N+](=O)[O-])cc3)CC2)nc2c1ncn2[C@@H]1O[C@H](C(=O)NC2CC2)C(O)[C@@H]1O` (stereo partly shown) [Compound 18, N-Cyclopropyl 2-{3-[1-(4-nitrobenzloxycarbonyl)-4-piperidinyl]-1-propyn-1-yl}adenosine-5′-uronamide], for which the pKi in assay [1] is over 7.00; in assay [2] it was over 7.00; in assay [3], over 9.00. Besides, the pEC50 in assay [4] is over 9.00.
Regarding `CCNC(=O)[C@H]1O[C@@H](n2cnc3c(N)nc(C#CCC4CCN(C(=O)Oc5ccc([N+](=O)[O-])cc5)CC4)nc32)[C@@H](O)C1O` (stereo partly shown) [Compound 19, N-Ethyl 2-{3-[1-(4-nitrophenyloxycarbonyl)-4-piperidinyl]-1-propyn-1-yl}adenosine-5′-uronamide], the pKi in assay [1] is over 7.00; in assay [2], over 8.00; in assay [3] it was over 9.00. For the same molecule, the pEC50 in assay [4] is over 9.00.

The record behind these values is patent US7888329B2, “Substituted aryl piperidinylalkynyladenosines as A2AR agonists” (PGxHealth, LLC, priority 2006, dated 2011).
